In publication PMC11167047 (Cell Death Discovery, 2024) one finds residual kinase activity data, which are given here for 2 molecules.

What all share (assay): kinome screen (33PanQinase)
Common to all, as to format: biochemical

For one assay, the target named is T1, TRKA (Homo sapiens, UniProt P04629).
T1 construct: purchased Reaction Biology Europe GmbH (formerly ProQinase)
As to the method: (§1) The Kinome Screening was performed by Reaction Biology Europe GmbH (http://reactionbiology.com; Freiburg i. Br., Germany).

For the next assay, the target named is T2, MAP3K9 (Homo sapiens, UniProt P80192).
T2 construct: purchased Reaction Biology Europe GmbH (formerly ProQinase)
As for the experimental part: as §1

In another assay the target is T3, FER (Homo sapiens, UniProt P16591).
T3 construct: purchased Reaction Biology Europe GmbH (formerly ProQinase)
As to the method: as §1

The target of another assay is T4, IKKβ (Homo sapiens, UniProt O14920).
T4 construct: purchased Reaction Biology Europe GmbH (formerly ProQinase)
T4 sequence (O14920 1-756): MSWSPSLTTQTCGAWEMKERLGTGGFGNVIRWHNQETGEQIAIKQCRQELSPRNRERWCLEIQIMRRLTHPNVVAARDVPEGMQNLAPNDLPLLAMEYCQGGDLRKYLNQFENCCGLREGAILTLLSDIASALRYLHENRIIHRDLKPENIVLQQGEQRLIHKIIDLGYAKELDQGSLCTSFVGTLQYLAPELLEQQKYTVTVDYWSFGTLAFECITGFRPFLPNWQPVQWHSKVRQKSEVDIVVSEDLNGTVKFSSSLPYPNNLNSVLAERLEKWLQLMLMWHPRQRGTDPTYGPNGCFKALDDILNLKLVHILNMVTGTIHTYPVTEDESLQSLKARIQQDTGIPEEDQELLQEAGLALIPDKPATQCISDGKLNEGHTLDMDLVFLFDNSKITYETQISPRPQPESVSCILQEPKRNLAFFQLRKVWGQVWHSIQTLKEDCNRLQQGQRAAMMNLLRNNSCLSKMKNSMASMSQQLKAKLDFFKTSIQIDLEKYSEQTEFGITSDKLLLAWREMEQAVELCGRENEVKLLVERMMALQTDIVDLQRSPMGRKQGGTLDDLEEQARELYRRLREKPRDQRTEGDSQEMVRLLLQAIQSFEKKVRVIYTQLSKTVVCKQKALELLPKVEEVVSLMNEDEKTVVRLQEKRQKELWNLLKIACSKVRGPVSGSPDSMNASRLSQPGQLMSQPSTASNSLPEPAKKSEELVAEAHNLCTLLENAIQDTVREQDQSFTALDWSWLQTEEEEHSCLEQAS
As to the method: as §1

The next assay deals with T5, CAMKK2 (Homo sapiens, UniProt Q96RR4).
T5 construct: purchased Reaction Biology Europe GmbH (formerly ProQinase)
As to the method:
as §1

The next assay has as its target T6, TGFBR2 (Homo sapiens, UniProt P37173).
T6 construct: purchased Reaction Biology Europe GmbH (formerly ProQinase)
As for the experimental part: as §1

In a further assay the target is T7, EPHB3 (Homo sapiens, UniProt P54753).
T7 construct: purchased Reaction Biology Europe GmbH (formerly ProQinase)
T7 sequence (P54753 34-998): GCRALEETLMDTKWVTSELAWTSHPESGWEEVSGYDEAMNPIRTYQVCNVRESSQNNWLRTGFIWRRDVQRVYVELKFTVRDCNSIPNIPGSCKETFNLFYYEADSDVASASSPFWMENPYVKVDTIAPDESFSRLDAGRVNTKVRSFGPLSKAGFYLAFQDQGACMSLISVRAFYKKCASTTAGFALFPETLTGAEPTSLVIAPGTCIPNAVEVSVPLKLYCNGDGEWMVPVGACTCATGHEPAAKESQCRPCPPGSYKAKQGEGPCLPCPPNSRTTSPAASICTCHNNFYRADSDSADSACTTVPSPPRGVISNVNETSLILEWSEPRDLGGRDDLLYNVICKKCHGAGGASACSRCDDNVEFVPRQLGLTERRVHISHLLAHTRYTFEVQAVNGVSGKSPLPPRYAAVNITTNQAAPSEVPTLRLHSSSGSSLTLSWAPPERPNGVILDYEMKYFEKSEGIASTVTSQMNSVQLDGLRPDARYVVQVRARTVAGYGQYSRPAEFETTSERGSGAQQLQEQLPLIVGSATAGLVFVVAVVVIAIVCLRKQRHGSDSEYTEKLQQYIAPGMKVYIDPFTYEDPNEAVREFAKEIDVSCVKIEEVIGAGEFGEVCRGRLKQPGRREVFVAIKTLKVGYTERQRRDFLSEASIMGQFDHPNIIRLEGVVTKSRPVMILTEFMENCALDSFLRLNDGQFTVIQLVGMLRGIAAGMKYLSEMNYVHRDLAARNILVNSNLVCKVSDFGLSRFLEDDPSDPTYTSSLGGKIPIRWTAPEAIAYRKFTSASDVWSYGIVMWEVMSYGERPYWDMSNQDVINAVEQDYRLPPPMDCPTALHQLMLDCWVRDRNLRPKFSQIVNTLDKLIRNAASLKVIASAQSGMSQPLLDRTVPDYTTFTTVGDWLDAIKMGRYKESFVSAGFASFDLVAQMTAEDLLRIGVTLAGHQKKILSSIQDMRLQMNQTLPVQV
As for the experimental part:
as §1

The next assay concerns the target T8, ERK1 (Homo sapiens, UniProt P27361).
T8 construct: purchased Reaction Biology Europe GmbH (formerly ProQinase)
As for the experimental part:
as §1

The target in another assay is T9, NEK3 (Homo sapiens, UniProt P51956).
T9 construct: purchased Reaction Biology Europe GmbH (formerly ProQinase)
T9 sequence (P51956 1-506): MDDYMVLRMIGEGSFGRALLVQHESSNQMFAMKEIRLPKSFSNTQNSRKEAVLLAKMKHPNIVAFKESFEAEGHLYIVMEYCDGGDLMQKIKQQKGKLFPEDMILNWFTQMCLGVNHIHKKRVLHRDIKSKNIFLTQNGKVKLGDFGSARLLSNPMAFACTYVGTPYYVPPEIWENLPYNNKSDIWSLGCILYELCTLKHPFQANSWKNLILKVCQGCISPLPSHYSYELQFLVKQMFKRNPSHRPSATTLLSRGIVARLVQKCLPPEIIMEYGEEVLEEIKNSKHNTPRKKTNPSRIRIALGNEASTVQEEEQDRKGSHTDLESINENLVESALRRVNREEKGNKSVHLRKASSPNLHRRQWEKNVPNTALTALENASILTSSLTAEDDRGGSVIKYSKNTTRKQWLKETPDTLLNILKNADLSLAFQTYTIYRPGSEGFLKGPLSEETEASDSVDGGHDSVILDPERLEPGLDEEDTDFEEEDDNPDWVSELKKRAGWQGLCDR
As to the method:
as §1

A further assay concerns the target T10, PASK (Homo sapiens, UniProt Q96RG2).
T10 construct: purchased Reaction Biology Europe GmbH (formerly ProQinase)
As to the method:
as §1

In a further assay the target is T11, CK2α2 (Homo sapiens, UniProt P19784).
T11 construct: purchased Reaction Biology Europe GmbH (formerly ProQinase)
As to the method:
as §1

T3 sequence (P16591 whole entry): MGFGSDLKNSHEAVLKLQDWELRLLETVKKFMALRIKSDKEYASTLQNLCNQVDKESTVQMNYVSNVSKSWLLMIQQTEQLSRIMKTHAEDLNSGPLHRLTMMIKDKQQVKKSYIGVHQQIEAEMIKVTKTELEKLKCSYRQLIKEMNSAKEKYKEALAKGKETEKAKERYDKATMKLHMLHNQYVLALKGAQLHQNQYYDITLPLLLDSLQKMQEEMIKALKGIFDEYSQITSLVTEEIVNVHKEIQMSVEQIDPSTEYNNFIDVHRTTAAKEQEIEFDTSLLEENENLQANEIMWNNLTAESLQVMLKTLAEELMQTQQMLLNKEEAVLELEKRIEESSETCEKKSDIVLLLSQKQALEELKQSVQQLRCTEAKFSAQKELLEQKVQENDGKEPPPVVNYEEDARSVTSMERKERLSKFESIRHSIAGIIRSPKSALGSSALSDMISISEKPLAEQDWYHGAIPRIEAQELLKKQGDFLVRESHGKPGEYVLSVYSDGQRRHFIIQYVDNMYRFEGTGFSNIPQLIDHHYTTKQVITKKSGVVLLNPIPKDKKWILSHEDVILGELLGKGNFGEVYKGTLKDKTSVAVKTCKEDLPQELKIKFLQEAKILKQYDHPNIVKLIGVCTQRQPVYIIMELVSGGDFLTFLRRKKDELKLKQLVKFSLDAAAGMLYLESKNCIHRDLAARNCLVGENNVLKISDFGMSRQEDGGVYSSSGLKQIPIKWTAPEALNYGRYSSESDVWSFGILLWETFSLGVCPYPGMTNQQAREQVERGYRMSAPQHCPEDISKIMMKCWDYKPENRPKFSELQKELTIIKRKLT
T8 sequence (P27361 whole entry): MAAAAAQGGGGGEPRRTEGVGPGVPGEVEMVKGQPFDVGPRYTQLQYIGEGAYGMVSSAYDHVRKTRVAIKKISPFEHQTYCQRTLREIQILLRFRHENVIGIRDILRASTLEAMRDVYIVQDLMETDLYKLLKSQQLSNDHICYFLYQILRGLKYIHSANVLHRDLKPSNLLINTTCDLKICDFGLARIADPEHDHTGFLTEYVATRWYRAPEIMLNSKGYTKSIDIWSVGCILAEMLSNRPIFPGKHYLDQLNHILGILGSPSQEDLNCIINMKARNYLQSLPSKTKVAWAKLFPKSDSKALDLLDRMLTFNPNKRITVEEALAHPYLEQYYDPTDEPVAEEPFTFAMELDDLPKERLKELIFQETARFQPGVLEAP
T2 sequence (P80192 whole entry): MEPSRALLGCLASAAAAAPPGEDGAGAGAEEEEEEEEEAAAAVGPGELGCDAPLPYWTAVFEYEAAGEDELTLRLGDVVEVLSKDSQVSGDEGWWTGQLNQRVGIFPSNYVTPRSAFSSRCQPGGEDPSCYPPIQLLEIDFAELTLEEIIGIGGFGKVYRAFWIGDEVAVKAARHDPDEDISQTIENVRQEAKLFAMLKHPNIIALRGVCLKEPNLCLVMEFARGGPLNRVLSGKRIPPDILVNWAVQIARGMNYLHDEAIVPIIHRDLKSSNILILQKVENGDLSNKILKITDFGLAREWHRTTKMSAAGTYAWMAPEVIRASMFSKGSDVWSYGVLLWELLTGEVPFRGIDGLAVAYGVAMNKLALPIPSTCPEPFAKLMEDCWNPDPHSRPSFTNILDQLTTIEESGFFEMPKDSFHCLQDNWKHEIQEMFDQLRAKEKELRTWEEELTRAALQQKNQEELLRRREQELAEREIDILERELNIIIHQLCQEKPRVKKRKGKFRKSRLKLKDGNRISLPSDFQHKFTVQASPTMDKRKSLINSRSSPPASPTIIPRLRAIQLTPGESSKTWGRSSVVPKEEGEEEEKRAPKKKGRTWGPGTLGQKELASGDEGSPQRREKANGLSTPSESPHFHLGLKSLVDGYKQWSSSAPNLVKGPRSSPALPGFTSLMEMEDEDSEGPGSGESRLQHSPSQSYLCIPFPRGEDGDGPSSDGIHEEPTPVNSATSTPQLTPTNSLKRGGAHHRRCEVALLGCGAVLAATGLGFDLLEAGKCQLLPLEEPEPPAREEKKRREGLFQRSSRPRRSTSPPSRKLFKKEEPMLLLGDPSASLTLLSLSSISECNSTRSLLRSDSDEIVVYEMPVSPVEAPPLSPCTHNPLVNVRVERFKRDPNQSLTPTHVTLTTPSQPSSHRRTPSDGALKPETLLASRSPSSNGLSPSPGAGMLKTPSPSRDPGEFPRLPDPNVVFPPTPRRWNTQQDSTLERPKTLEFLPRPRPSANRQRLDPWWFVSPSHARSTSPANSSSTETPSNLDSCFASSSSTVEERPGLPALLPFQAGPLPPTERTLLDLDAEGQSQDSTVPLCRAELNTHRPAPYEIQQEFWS
T5 sequence (Q96RR4 whole entry): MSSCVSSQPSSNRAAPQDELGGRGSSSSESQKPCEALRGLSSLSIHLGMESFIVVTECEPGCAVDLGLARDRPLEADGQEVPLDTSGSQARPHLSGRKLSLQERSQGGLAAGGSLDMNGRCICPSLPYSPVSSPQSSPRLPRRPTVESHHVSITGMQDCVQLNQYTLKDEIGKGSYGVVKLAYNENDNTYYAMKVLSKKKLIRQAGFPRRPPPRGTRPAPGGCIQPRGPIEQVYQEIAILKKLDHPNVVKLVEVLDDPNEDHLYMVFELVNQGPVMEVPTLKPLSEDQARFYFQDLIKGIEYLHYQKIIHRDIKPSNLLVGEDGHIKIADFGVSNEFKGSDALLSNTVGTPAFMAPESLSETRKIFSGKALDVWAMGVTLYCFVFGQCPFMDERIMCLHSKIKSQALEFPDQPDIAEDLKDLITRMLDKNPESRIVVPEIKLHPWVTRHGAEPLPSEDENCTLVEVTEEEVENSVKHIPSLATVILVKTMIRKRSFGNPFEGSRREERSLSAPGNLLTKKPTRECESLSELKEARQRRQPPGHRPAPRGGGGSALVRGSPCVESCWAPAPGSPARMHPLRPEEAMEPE
T11 sequence (P19784 whole entry): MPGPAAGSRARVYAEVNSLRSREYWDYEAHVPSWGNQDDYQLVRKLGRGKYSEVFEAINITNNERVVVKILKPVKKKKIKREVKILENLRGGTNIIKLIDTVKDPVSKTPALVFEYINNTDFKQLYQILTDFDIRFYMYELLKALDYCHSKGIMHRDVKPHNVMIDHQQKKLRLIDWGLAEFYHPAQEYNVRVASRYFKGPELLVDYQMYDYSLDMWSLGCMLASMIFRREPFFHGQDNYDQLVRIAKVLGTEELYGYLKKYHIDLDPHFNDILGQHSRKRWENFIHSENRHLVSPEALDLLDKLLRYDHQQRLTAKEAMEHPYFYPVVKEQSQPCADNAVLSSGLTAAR
T10 sequence (Q96RG2 whole entry): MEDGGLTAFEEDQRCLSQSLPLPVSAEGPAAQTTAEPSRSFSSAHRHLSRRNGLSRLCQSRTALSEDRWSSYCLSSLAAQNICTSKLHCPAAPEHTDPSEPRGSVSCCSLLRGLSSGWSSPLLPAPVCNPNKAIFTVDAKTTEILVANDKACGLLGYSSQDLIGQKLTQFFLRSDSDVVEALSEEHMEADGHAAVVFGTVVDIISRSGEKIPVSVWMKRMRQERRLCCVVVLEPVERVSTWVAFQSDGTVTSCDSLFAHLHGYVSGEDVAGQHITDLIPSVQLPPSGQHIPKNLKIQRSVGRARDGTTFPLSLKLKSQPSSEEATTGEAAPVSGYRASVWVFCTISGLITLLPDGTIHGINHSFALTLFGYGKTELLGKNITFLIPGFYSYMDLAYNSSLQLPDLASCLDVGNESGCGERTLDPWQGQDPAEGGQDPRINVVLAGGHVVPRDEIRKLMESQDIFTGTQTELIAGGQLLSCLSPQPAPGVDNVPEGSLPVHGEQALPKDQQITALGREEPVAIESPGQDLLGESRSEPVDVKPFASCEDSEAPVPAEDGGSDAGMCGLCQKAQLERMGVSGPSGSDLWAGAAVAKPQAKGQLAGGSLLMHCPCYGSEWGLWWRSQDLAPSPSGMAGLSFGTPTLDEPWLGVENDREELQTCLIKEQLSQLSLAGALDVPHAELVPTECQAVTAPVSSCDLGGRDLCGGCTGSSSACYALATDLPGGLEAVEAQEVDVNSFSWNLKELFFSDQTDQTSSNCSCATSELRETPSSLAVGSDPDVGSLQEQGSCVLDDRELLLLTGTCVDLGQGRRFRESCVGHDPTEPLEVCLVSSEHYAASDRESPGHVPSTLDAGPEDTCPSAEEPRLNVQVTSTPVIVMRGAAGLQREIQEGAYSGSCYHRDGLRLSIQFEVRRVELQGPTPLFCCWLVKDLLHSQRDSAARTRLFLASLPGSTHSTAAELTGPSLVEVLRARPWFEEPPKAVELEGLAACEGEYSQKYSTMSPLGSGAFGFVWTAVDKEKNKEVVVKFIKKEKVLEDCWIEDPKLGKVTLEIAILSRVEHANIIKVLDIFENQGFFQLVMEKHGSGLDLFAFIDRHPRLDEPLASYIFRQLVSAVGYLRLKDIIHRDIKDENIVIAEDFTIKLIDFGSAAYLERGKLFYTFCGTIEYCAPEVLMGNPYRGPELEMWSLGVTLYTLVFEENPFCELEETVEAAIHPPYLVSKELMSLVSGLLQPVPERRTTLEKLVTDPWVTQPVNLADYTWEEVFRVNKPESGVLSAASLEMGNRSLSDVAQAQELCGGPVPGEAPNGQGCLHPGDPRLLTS

Consider `COc1ccnc2[nH]cc(-c3cc(N)nc(N)c3)c12` [meriolin 16], for which the residual kinase activity is 83 % of control at TRKA (0.03 µM); 40 % of control at TRKA (0.3 µM); 95 % of control on MAP3K9 (0.03 µM); 80 % of control on MAP3K9 (0.3 µM); 63 % of control at FER (0.03 µM); 58 % of control on FER (0.3 µM). In addition, the residual kinase activity at IKKβ (0.03 µM) is 85 % of control; at IKKβ (0.3 µM) it was 64 % of control; on CAMKK2 (0.03 µM), 92 % of control; on CAMKK2 (0.3 µM), 55 % of control; on TGFBR2 (0.03 µM), 109 % of control; at TGFBR2 (0.3 µM), 85 % of control. For the same molecule, the residual kinase activity on EPHB3 (0.03 µM) is recorded as 101 % of control; on EPHB3 (0.3 µM), 99 % of control; at ERK1 (0.03 µM), 111 % of control; at ERK1 (0.3 µM) it was 96 % of control; at NEK3 (0.03 µM), 96 % of control; on NEK3 (0.3 µM), 78 % of control. The residual kinase activity is reported as 82 % of control on PASK (0.03 µM), 39 % of control at PASK (0.3 µM), 110 % of control on CK2α2 (0.03 µM) and 105 % of control at CK2α2 (0.3 µM).

For `c1ccc(CNc2cc(-c3c[nH]c4ncccc34)ccn2)cc1` [meriolin 36], the residual kinase activity at TRKA (0.3 µM) was 9 % of control; at TRKA (3 µM), 1 % of control; at MAP3K9 (0.3 µM), 57 % of control; at MAP3K9 (3 µM), 12 % of control; on FER (0.3 µM), 66 % of control; on FER (3 µM) it was 22 % of control. Also, the residual kinase activity at IKKβ (0.3 µM) was 80 % of control; at IKKβ (3 µM) it was 36 % of control; at CAMKK2 (0.3 µM), 9 % of control; on CAMKK2 (3 µM), 1 % of control; at TGFBR2 (0.3 µM), 72 % of control; at TGFBR2 (3 µM) it was 24 % of control. The residual kinase activity was 91 % of control on EPHB3 (0.3 µM); 67 % of control on EPHB3 (3 µM); 72 % of control at ERK1 (0.3 µM); 37 % of control at ERK1 (3 µM); 94 % of control on NEK3 (0.3 µM); 79 % of control at NEK3 (3 µM). Further, the residual kinase activity on PASK (0.3 µM) was 3 % of control; at PASK (3 µM) it was 0 % of control; on CK2α2 (0.3 µM), 91 % of control; at CK2α2 (3 µM), 43 % of control.
